Laboratory results from patent US8946439B2, “Amide compounds, compositions and uses thereof” (Evotec AG, priority 2008, dated 2015).
Read-outs that look alike come from different tables or passages of the source.

Legend:
[1] = target: T1, hP2X3 (Homo sapiens, UniProt P56373); assay: Calcium uptake assay (P2X antagonist assay), P2X3 homomer; type: cell-based; settings: hP2X3
T1 construct: expressed in transfected cells; host or cells: e.g. HEK293 or 1321N1
T1 sequence (P56373 1-397): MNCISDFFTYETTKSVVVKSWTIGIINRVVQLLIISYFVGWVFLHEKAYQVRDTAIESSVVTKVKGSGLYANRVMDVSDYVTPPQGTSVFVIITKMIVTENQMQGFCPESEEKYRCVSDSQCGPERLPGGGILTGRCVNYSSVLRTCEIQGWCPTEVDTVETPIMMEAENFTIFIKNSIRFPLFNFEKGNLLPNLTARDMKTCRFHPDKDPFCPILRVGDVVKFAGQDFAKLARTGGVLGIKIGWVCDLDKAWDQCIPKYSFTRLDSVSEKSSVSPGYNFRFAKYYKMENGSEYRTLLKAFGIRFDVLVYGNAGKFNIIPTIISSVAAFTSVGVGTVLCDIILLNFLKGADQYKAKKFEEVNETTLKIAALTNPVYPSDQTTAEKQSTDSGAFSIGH
Outline: (§1)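 Stably or transiently transfected HEK293 or 1321N1 cells; the heteromer is made by adding P2X3 to a P2X2-stable line, with heteromer function isolated pharmacologically. The peak-minus-baseline FLIPR calcium signal gives % inhibition and a 4-parameter-logistic IC50.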

[2] = target: T2, hP2X2/3H (Homo sapiens, UniProt P56373+Q9UBL9); assay: Calcium uptake assay (P2X antagonist assay), P2X2/3 heteromer; type: cell-based; settings: hP2X2/3H
T2 construct: expressed in transfected cells; host or cells: e.g. HEK293 or 1321N1
T2 sequence (Q9UBL9 1-471): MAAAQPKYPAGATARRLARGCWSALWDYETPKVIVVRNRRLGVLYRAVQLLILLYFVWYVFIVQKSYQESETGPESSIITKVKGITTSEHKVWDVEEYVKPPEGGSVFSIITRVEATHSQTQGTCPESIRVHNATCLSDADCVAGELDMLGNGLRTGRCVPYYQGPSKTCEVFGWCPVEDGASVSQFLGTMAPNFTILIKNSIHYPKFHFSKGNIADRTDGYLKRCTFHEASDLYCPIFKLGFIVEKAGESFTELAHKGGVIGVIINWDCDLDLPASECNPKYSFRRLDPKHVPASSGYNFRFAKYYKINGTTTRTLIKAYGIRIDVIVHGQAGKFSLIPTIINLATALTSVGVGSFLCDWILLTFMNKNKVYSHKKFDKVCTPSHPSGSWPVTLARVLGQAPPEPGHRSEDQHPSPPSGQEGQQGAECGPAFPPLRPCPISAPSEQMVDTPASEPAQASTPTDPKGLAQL
T2 sequence (P56373 1-397): T1 sequence (P56373 1-397)
Outline: as §1

[3] = Ca influx (calcium uptake assay), read-out: IC50 hP2X3
[4] = Ca influx (calcium uptake assay), read-out: IC50 hP2X2/3H
[5] = calcium uptake assay, read-out: IC50 hP2X3 (nM), Ca Influx
[6] = calcium uptake assay, read-out: IC50 hP2X2/3H (nM), Ca Influx

Row | Structure (SMILES) | IC50 [1, 3] [nM] | IC50 [2, 4] [nM] | IC50 [1, 5] [nM] | IC50 [2, 6] [nM]
1 | Cc1ccc(-c2cc(CN3CCN(C)CC3)cc(C(=O)NCc3ccc(C)nc3)c2)nc1 [Compound 244] | 100 to 500 | 501 to 1000 | – | –
2 | Cc1ccc(-c2cc(C(=O)NCc3ccc(C)nc3)cc(C(=O)N3Cc4ccccc4C3)c2)cc1 [Compound 185, 5-(Isoindoline-2-carbonyl)-4′-methyl-N-((6-methylpyridin-3-yl)methyl)biphenyl-3-carboxamide] | – | – | 100 to 500 | 100 to 500
3 | Cc1ccc(-c2cc(C(=O)N[C@H](C)c3cnn(C)c3C(F)(F)F)cc(C(=O)N3CCCC3)c2)cc1 [Compound 107] | – | – | 100 to 500 | 501 to 1000
4 | Cc1ccc(-c2cc(C(=O)NCc3ccc(C)nc3)cc(C(=O)N3CC[C@@H](O)C3)c2)cc1 [Compound 94, (R)-5-(3-Hydroxypyrrolidine-1-carbonyl)-4′-methyl-N-((6-methylpyridin-3-yl)methyl)biphenyl-3-carboxamide] | – | – | < 100 | < 100
5 | Cc1ccc(-c2cc(OC(F)(F)F)cc(C(=O)NCc3ccc(C)nc3)c2)nc1 [Compound 220, 3-(5-Methylpyridin-2-yl)-N-((6-methylpyridin-3-yl)methyl)-5-(trifluoromethoxy)benzamide] | 100 to 500 | > 1000 | – | –
6 | CCOC(=O)c1cc(C(=O)NCc2cnc(C)nc2)cc(-c2ccc(C)cc2)c1 [Compound 15, Ethyl 4′-methyl-5-((2-methylpyrimidin-5-yl)methylcarbamoyl)biphenyl-3-carboxylate] | – | – | < 100 | < 100
7 | Cc1ccc(-c2cc(C(=O)NCc3ccc(C)nc3)cc(C(=O)N3CCOc4ccccc43)c2)cc1 [Compound 190] | – | – | 100 to 500 | < 100
8 | CCCS(=O)(=O)c1cc(C(=O)NCc2ccn3ccnc3c2)cc(-c2ccc(C)cc2)c1 [Compound 57] | – | – | < 100 | < 100
9 | Cc1ccc(-c2cc(C(=O)NC(C)c3csc(C)n3)cc(C(=O)N3CCCC3)c2)cc1 (stereo not drawn) [Compound 111, 4′-Methyl-N-(1-(2-methylthiazol-4-yl)ethyl)-5-(pyrrolidine-1-carbonyl)biphenyl-3-carboxamide] | – | – | < 100 | 100 to 500
10 | Cc1ccc(-c2cc(C(=O)N[C@H](CO)c3ccc(C(F)F)nc3)cc(C(=O)N3CCCC3)c2)cc1 [Compound 89] | – | – | < 100 | < 100
11 | Cc1ccc(-c2cc(C(=O)O)cc(C(=O)NCc3ccc(C)nc3)c2)cc1 [Compound 87, 4′-Methyl-5-((6-methylpyridin-3-yl)methylcarbamoyl)biphenyl-3-carboxylic acid] | – | – | 100 to 500 | 100 to 500
12 | Cc1ccc(-c2cc(C(=O)NCc3cnc(C)nc3)cc(S(C)(=O)=O)c2)c(C#N)c1 [Compound 59] | – | – | < 100 | 100 to 500
13 | Cc1ccc(-c2cc(C(=O)N[C@H](CO)c3ccc(C)nc3)cc(S(C)(=O)=O)c2)cc1 [Compound 257, (S)—N-(2-Hydroxy-1-(6-methylpyridin-3-yl)ethyl)-4′-methyl-5-(methylsulfonyl)biphenyl-3-carboxamide] | < 100 | < 100 | – | –
14 | Cc1ccc(-c2cc(C(=O)NCc3ccc(C)nc3)cc(C(=O)N3CC(O)C3)c2)c(C#N)c1 [Compound 63, 2′-Cyano-5-(3-hydroxyazetidine-1-carbonyl)-4′-methyl-N-((6-methylpyridin-3-yl)methyl)biphenyl-3-carboxamide] | – | – | < 100 | < 100
15 | Cc1ccc(-c2cc(OCC3CCOC3)cc(C(=O)N[C@H](C)c3ccc(C)nc3)c2)nc1 (stereo partly drawn) [Compound 334] | < 100 | < 100 | – | –
16 | Cc1ccc(-c2cc(C(=O)NCc3ccc(C)nc3)cc(C(=O)N3CC[C@@H](N(C)C)C3)c2)cc1 [Compound 143] | – | – | 100 to 500 | 501 to 1000
17 | Cc1ccc(-c2cc(C(=O)NCc3cnc(C)nc3)cc(S(C)(=O)=O)c2)nc1 [Compound 307] | < 100 | > 1000 | – | –
18 | Cc1ccc(-c2cc(C(=O)NCc3cnc(C)nc3)cc(C(=O)NCc3cnc(C)nc3)c2)cc1 [Compound 16, 4′-Methyl-N3,N5-bis((2-methylpyrimidin-5-yl)methyl)biphenyl-3,5-dicarboxamide] | – | – | 100 to 500 | 100 to 500
